IC50 data for 16 compounds are collected here from patent US11548888B2, “KRas G12C inhibitors” (Mirati Therapeutics, Inc., priority 2019, dated 2023).

The target in the assay is T1, KRas G12C (Homo sapiens, UniProt P01116, G12C).
T1 construct: NCI-H358 cells (ATCC CRL-5807) express KRas G12C
T1 sequence (P01116 1-188 isoform P01116-2 G12C): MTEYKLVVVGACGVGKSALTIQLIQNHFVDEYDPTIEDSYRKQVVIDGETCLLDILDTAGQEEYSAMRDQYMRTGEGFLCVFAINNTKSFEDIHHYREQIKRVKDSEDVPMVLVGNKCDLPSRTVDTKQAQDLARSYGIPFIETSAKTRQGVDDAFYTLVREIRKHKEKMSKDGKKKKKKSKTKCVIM
In words: Inhibition of KRas G12C-dependent cell growth: Phospho-ERK in NCI-H358 cells. Type of assay: cell-based. As to conditions: NCI-H358 cells expressing KRas G12C; Phospho-ERK (Thr202/Tyr204) normalized to GAPDH; 3 hours compound; 4 parameter fit. As to the method:
The cellular inhibition of KRAs G12C by exemplary compounds of the present invention was determined by measuring the amount of a downstream marker of KRas activity, phosphorylated ERK (“Phospho-ERK”).
NCI-H358 cells (ATCC CRL-5807) express KRas G12C and were grown in RPMI medium supplemented with 10% fetal bovine serum, penicillin/streptomycin and 10 mM HEPES. Cells were plated in poly-D-Lysine coated 96-well plates at a concentration of 50,000 cells/well and allowed to attach for 8-12 hours. Diluted compounds were then added at a final concentration of 0.5% DMSO. After 3 hours, the medium was removed, 150 μL of 4% formaldehyde was added and the plates were incubated for 20 minutes. The plates were washed with PBS, and permeabilized using 150 μL of ice cold 100% methanol for 10 minutes. Non-specific antibody binding to the plates was blocked using 100 μL Licor Blocking Buffer (Li-Cor Biotechnology, Lincoln Nebr.) for 1 hour at room temperature. Positive control samples and samples lacking cells were parallel processed with test samples as standards.
The amount Phospho-ERK was determined using an antibody specific for the phosphorylated form of ERK and compared to the amount of GAPDH. Primary antibodies used for detection were added as follows: Phospho-ERK (Cell Signaling cs9101) diluted 1:500 and GAPDH (Millipore MAB374) diluted 1:5000 in Licor block+0.05% Tween 20. The plates were incubated for 2 hours at room temperature. The plates were washed with PBS+0.05% Tween 20.
Secondary antibodies used to visualize primary antibodies were added as follows: Anti-rabbit-680 diluted 1:1000 and Anti-mouse-800 diluted 1:1000 in Licor Block+0.05% Tween 20 and incubated for 1 hour at room temperature. The plates were washed with PBS+0.05% Tween 20. A 100 μL aliquot of PBS was added to each well and the plates were read on a LICOR AERIUS plate reader.
The pERK(Thr202/Tyr204) signal was normalized with the GAPDH signal and percent of DMSO control values were calculated. IC50 values were generated using a 4 parameter fit of the dose response curve.
`C=C(F)C(=O)N1CCN(c2nc(OCCCN3C[C@@H]4C[C@H]3CO4)nc3c(F)c(-c4cncc5cccc(Cl)c45)ncc23)C[C@@H]1CC#N` [Example 37, 2-[(2S)-4-[7-(5-chloro-4-isoquinolyl)-8-fluoro-2-[3-[(1S,4S)-2-oxa-5-azabicyclo[2.2.1]heptan-5-yl]propoxy]pyrido[4,3-d]pyrimidin-4-yl]-1-(2-fluoroprop-2-enoyl)piperazin-2-yl]acetonitrile] returned an IC50 of 168 nM.
The compound `C=C(F)C(=O)N1CCN(c2nc(OCCCN3C[C@@H]4C[C@H]3CO4)nc3c(F)c(-c4cncc5cccc(C)c45)ncc23)C[C@@H]1CC#N` [Example 38, 2-[(2S)-4-[8-fluoro-7-(5-methyl-4-isoquinolyl)-2-[3-[(1S,4S)-2-oxa-5-azabicyclo[2.2.1]heptan-5-yl]propoxy]pyrido[4,3-d]pyrimidin-4-yl]-1-(2-fluoroprop-2-enoyl)piperazin-2-yl]acetonitrile] showed an IC50 of 338 nM.
For `Cc1cccc2cncc(-c3ncc4c(N5CCN(C(=O)/C=C/CF)[C@@H](CC#N)C5)nc(OCCCN5C[C@@H]6C[C@H]5CO6)nc4c3F)c12` [Example 39, 2-[(2S)-1-[(E)-4-fluorobut-2-enoyl]-4-[8-fluoro-7-(5-methyl-4-isoquinolyl)-2-[3-[(1S,4S)-2-oxa-5-azabicyclo[2.2.1]heptan-5-yl]propoxy]pyrido[4,3-d]pyrimidin-4-yl]piperazin-2-yl]acetonitrile] the value was 544 nM; for `C=CC(=O)N1CCN(c2ncnc3cc(-c4cccc5cccc(C)c45)ncc23)C[C@@H]1CC#N` [Example 40, (S)-2-(1-acryloyl-4-(7-(8-methylnaphthalen-1-yl)pyrido[4,3-d]pyrimidin-4-yl)piperazin-2-yl)acetonitrile], 496 nM; for `C=CC(=O)N1CCN(c2ncnc3c(F)c(-c4cccc5cccc(C)c45)ncc23)C[C@@H]1CC#N` [Example 41, 2-[(2S)-4-[8-fluoro-7-(8-methyl-1-naphthyl)pyrido[4,3-d]pyrimidin-4-yl]-1-prop-2-enoyl-piperazin-2-yl]acetonitrile], 216 nM.
With `C=C(F)C(=O)N1CCN(c2nc(OC[C@@H]3C[C@@H](F)CN3C)nc3c(F)c(-c4cccc5cccc(Cl)c45)ncc23)C[C@@H]1CC#N` [Example 42, 2-[(2S)-4-[7-(8-chloro-1-naphthyl)-8-fluoro-2-[[(2S,4R)-4-fluoro-1-methyl-pyrrolidin-2-yl]methoxy]pyrido[4,3-d]pyrimidin-4-yl]-1-(2-fluoroprop-2-enoyl)piperazin-2-yl]acetonitrile], 18 nM corresponded to half-maximal inhibition (IC50).
The compound `CN1C[C@H](F)C[C@H]1COc1nc(N2CCN(C(=O)/C=C/CF)[C@@H](CC#N)C2)c2cnc(-c3cccc4cccc(Cl)c34)c(F)c2n1` [Example 43, 2-[(2S)-4-[7-(8-chloro-1-naphthyl)-8-fluoro-2-[[(2S,4R)-4-fluoro-1-methyl-pyrrolidin-2-yl]methoxy]pyrido[4,3-d]pyrimidin-4-yl]-1-[(E)-4-fluorobut-2-enoyl]piperazin-2-yl]acetonitrile] came in with an IC50 of 4 nM.
The compound `COC/C=C/C(=O)N1CCN(c2nc(OC[C@@H]3C[C@@H](F)CN3C)nc3c(F)c(-c4cccc5cccc(Cl)c45)ncc23)C[C@@H]1CC#N` [Example 44, 2-[(2S)-4-[7-(8-chloro-1-naphthyl)-8-fluoro-2-[[(2S,4R)-4-fluoro-1-methyl-pyrrolidin-2-yl]methoxy]pyrido[4,3-d]pyrimidin-4-yl]-1-[(E)-4-methoxybut-2-enoyl]piperazin-2-yl]acetonitrile] showed an IC50 of 15 nM.
As for `C=C(F)C(=O)N1CCN(c2nc(OC[C@@H]3CC(F)(F)CN3C)nc3c(F)c(-c4cncc5cccc(C)c45)ncc23)C[C@@H]1CC#N` [Example 45, 2-((S)-4-(2-(((S)-4,4-difluoro-1-methylpyrrolidin-2-yl)methoxy)-8-fluoro-7-(5-methylisoquinolin-4-yl)pyrido[4,3-d]pyrimidin-4-yl)-1-(2-fluoroacryloyl)piperazin-2-yl)acetonitrile], the midpoint of inhibition, the IC50, lay at 205 nM.
For `C=C(F)C(=O)N1CCN(c2nc(OC[C@@H]3CC(F)(F)CN3C)nc3c(F)c(-c4cncc5cccc(Cl)c45)ncc23)C[C@@H]1CC#N` [Example 46, 2-((S)-4-(7-(5-chloroisoquinolin-4-yl)-2-(((S)-4,4-difluoro-1-methylpyrrolidin-2-yl)methoxy)-8-fluoropyrido[4,3-d]pyrimidin-4-yl)-1-(2-fluoroacryloyl)piperazin-2-yl)acetonitrile] the value was 94 nM; for `CN1CC(F)(F)C[C@H]1COc1nc(N2CCN(C(=O)/C=C/CF)[C@@H](CC#N)C2)c2cnc(-c3cncc4cccc(Cl)c34)c(F)c2n1` [Example 47, 2-((S)-4-(7-(5-chloroisoquinolin-4-yl)-2-(((S)-4,4-difluoro-1-methylpyrrolidin-2-yl)methoxy)-8-fluoropyrido[4,3-d]pyrimidin-4-yl)-1-((E)-4-fluorobut-2-enoyl)piperazin-2-yl)acetonitrile], 30 nM; for `N#CC[C@H]1CN(c2nc(OCCCN3C[C@@H]4C[C@H]3CO4)nc3c(F)c(-c4cncc5cccc(Cl)c45)ncc23)CCN1C(=O)/C=C/CF` [Example 48, 2-[(2S)-4-[7-(5-chloro-4-isoquinolyl)-8-fluoro-2-[3-[(1S,4S)-2-oxa-5-azabicyclo[2.2.1]heptan-5-yl]propoxy]pyrido[4,3-d]pyrimidin-4-yl]-1-[(E)-4-fluorobut-2-enoyl]piperazin-2-yl]acetonitrile], 270 nM.
The compound `COC/C=C/C(=O)N1CCN(c2nc(OC[C@@H]3C[C@@H](F)CN3C)nc3c(F)c(-c4cccc5cccc(C)c45)ncc23)C[C@@H]1CC#N` [Example 49, 2-[(2S)-4-[8-fluoro-2-[[(2S,4R)-4-fluoro-1-methyl-pyrrolidin-2-yl]methoxy]-7-(8-methyl-1-naphthyl)pyrido[4,3-d]pyrimidin-4-yl]-1-[(E)-4-methoxybut-2-enoyl]piperazin-2-yl]acetonitrile] registered an IC50 of 62 nM.
The figure for `C=C(F)C(=O)N1CCN(c2nc(OC[C@@H]3C[C@@H](F)CN3C)nc3c(F)c(-c4cncc5cccc(C)c45)ncc23)C[C@@H]1CC#N` [Example 50, 2-[(2S)-4-[8-fluoro-2-[[(2S,4R)-4-fluoro-1-methyl-pyrrolidin-2-yl]methoxy]-7-(5-methyl-4-isoquinolyl)pyrido[4,3-d]pyrimidin-4-yl]-1-(2-fluoroprop-2-enoyl)piperazin-2-yl]acetonitrile] is 53 nM; for `Cc1cccc2cncc(-c3ncc4c(N5CCN(C(=O)/C=C/CF)[C@@H](CC#N)C5)nc(OC[C@@H]5C[C@@H](F)CN5C)nc4c3F)c12` [Example 51, 2-[(2S)-1-[(E)-4-fluorobut-2-enoyl]-4-[8-fluoro-2-[[(2S,4R)-4-fluoro-1-methyl-pyrrolidin-2-yl]methoxy]-7-(5-methyl-4-isoquinolyl)pyrido[4,3-d]pyrimidin-4-yl]piperazin-2-yl]acetonitrile] it is 19 nM.
For `C=C(F)C(=O)N1CCN(c2nc(OC[C@@H]3C[C@@H](F)CN3C)nc3c(F)c(-c4cncc5cccc(Cl)c45)ncc23)C[C@@H]1CC#N` [Example 52, 2-[(2S)-4-[7-(5-chloro-4-isoquinolyl)-8-fluoro-2-[[(2S,4R)-4-fluoro-1-methyl-pyrrolidin-2-yl]methoxy]pyrido[4,3-d]pyrimidin-4-yl]-1-(2-fluoroprop-2-enoyl)piperazin-2-yl]acetonitrile], the half-maximal inhibitory concentration (IC50) was 23 nM.
